What all share (format): cell-based, human
Assay [1] concerns 293-HEK cell line. As to the kind of experiment: Extracellular vesicle output quantified by Bradford solution. The protocol: The 293-HEK cell line was cultured in a 6-well plate at a rate of 2×10^5 cells/mL, and the next day, the cell line was treated with the solution of Example 1 and a peptide of any one of SEQ ID NOs: 1 to 21. […], the solution was removed, followed by centrifugation at an RCF of 12000, and the extracellular vesicles were quantified using the supernatant by Bradford solution.

For assay [2], the system named is 293-HEK cell line. As to the kind of experiment: Extracellular vesicle size and quantity by Nanoparticle Tracking Analysis (NTA). The following applies: 50-fold diluted, solution of Example 1, peptide 20 μm, after 20 minutes. How it is done: After the 293-HEK cell line was cultured to 90% confluency (about 2×10^7 cells) in a 10-cm culture dish, the culture was removed, and the cells were treated with the eMTDΔ4 peptide (final concentration: 20 μm), which has been dissolved in 5 ml of the solution of Example 1. After 20 minutes, the solution was removed, followed by centrifugation at an RCF of 12000, and then the size and quantity of extracellular vesicles were measured using a Nanoparticle Tracking Analysis (NTA) system (Nanosight LM10, Malvern Instruments).

Assay [3] deals with HeLa cell line. As to the kind of experiment: Production of extracellular vesicles, observed by optical microscope (bright field). How it is done:
After the HeLa cell line was cultured in a 6-well plate, the culture was removed, and then the HeLa cell line was treated with the solution in Example 1.
The control group was not treated with any peptide, and the experiment group was treated with eMTDΔ4 peptide of SEQ ID NO: 2 (final concentration: 20 μM). After 10 minutes, the generation of extracellular vesicles was observed by an optical microscope (bright field), and the observation results are shown in FIG. 1.
Extracellular vesicle production was carried out by the experimental method of Experimental Example 2-1 using the R(8):MTD peptide of SEQ ID NO: 4 and the solutions of Example 1 and Comparative Examples 1 to 18, and the results are shown in FIGS. 2A to 2S.
Extracellular vesicle production was carried out by the experimental method of Example 2-1 using the R(8):MTD peptide of SEQ ID NO: 4 and the solutions of Examples 1 to 3 on Table 3, and the results are shown in FIGS. 3A to 3C.

Where [4] appears, read: solution of Example 1, peptide 10 μM.
Where [5] appears, read: solution of Example 1, peptide 20 μM.
The mark [6] stands for this setting: solution of Example 1, peptide 40 μM.

As to “AEYRKLLNLISKLF (TU128) [Noxa protein-derived derivative peptide, 14aa]”, the “Amount of proteins contained in extracellular vesicles” value (from here on “Amount of proteins contained”) in assay [1] (setting [4]) was found to be 3.86 µg/µL; in assay [1] (setting [5]), 5.29 µg/µL; in assay [1] (setting [6]), 7.25 µg/µL.
In the same order, the values of “AEYSRKLLNLISKLF (TU135) [Noxa protein-derived derivative peptide, 15aa]” are 1.81 µg/µL, 4.41 µg/µL and 6.54 µg/µL.
Consider “AFFLRKLLNLISKLF (TU151) [Noxa protein-derived derivative peptide, 15aa]”, for which the “Amount of proteins contained” value was 1.51 µg/µL in assay [1] (setting [4]), 1.30 µg/µL in assay [1] (setting [5]) and 1.40 µg/µL in assay [1] (setting [6]).
In the same order, the values of “AHFLRKLLNLISKLF (TU149) [Noxa protein-derived derivative peptide, 15aa]” are 1.71 µg/µL, 2.00 µg/µL and 2.57 µg/µL.
On to “GLKSLRKLLNLISKLF (TU111) [Noxa protein-derived derivative peptide, 16aa]”, for which the “Amount of proteins contained” value amounted to 4.17 µg/µL in assay [1] (setting [4]), 4.98 µg/µL in assay [1] (setting [5]) and 6.44 µg/µL in assay [1] (setting [6]).
Take KLLNLISKLF [MTD]: the “Quantity of extracellular vesicles” value in assay [2] is 8.01e+08 ± 1.75e+07 mL⁻¹. In addition, the “Amount of proteins contained” value in assay [1] (setting [4]) amounted to 0.80 µg/µL; in assay [1] (setting [5]) it was 1.17 µg/µL; in assay [1] (setting [6]) it was 2.87 µg/µL.
In the case of “KLLNLWSLLFGYTIK (TU103) [Noxa protein-derived derivative peptide, 15aa]”, the “Amount of proteins contained” value came out at 0.75 µg/µL in assay [1] (setting [4]), 0.40 µg/µL in assay [1] (setting [5]) and 0.55 µg/µL in assay [1] (setting [6]).
In the same order, the values of “KLLNLWSLLKGYTIK (TU124) [Noxa protein-derived derivative peptide, 15aa]” are 3.30 µg/µL, 5.02 µg/µL and 6.24 µg/µL.
In the same order, the values of “KLNFAEFLRNLISKLF (TU166) [Noxa protein-derived derivative peptide, 16aa]” are 5.77 µg/µL, 6.68 µg/µL and 8.10 µg/µL.
In the same order, the values of “KLNFRLGLRSLREKLF (TU168) [Noxa protein-derived derivative peptide, 16aa]” are 0.77 µg/µL, 2.17 µg/µL and 3.74 µg/µL.
As for “KLNFRQKLARLLTKLF (TU171) [Noxa protein-derived derivative peptide, 16aa]”, the entries for the “Amount of proteins contained” value in assay [1] (setting [4]), in assay [1] (setting [5]) and in assay [1] (setting [6]) were 2.64 µg/µL, 3.62 µg/µL and 5.30 µg/µL, respectively.
For “KVSIFLKNLISKLF (TU156) [Noxa protein-derived derivative peptide, 14aa]”, the “Amount of proteins contained” value in assay [1] (setting [4]) turned out to be 1.17 µg/µL; in assay [1] (setting [5]), 1.55 µg/µL; in assay [1] (setting [6]), 3.93 µg/µL.
Take “KWYAKLLNLISKLF (TU114) [Noxa protein-derived derivative peptide, 14aa]”: the “Quantity of extracellular vesicles” value in assay [2] was found to be 8.75e+08 ± 9.27e+07 mL⁻¹.
As for “LNFKWYSLLNLISKLF (TU172) [Noxa protein-derived derivative peptide, 16aa]”, the results for the “Amount of proteins contained” value in assay [1] (setting [4]), in assay [1] (setting [5]) and in assay [1] (setting [6]) were 0.83 µg/µL, 0.44 µg/µL and 0.59 µg/µL, respectively.
In the same order, the values of “LRSLRDKLLNLISKLF (TU107) [Noxa protein-derived derivative peptide, 16aa]” are 5.58 µg/µL, 6.69 µg/µL and 7.45 µg/µL.
With “MEWWYLLKLLNLISKLF (TU104) [Noxa protein-derived derivative peptide, 17aa]”, the “Amount of proteins contained” value amounted to 0.62 µg/µL in assay [1] (setting [4]), 0.75 µg/µL in assay [1] (setting [5]) and 1.02 µg/µL in assay [1] (setting [6]).
The corresponding values for “QFAQYLRNLISKLF (TU155) [Noxa protein-derived derivative peptide, 14aa]” are 1.56 µg/µL, 1.77 µg/µL and 2.85 µg/µL.
On to “RPARPARGGKLLNLISKLF (TU17) [Noxa protein-derived derivative peptide, 19aa]”, for which the “Quantity of extracellular vesicles” value in assay [2] was found to be 7.95e+08 ± 7.15e+07 mL⁻¹.
RRRRRRRRKLLNLISKLF [R(8):MTD]: the “generation of extracellular vesicles” value in assay [3] (solution of Example 1 (250 mM sucrose), peptide final concentration 20 μM, after 10 minutes) is listed as “many extracellular vesicle particles were generated”; in assay [3] (solutions of Comparative Examples 1 to 18 (FIGS. 2B to 2S)) it was “extracellular vesicle particles were not generated”; in assay [3] (solutions of Examples 1 to 3, excess of glucose or sorbitol instead of sucrose), “extracellular vesicles were well formed”.
For the sequence “YWLPLRKLLNLISKLF (TU146) [Noxa protein-derived derivative peptide, 16aa]”, the “Amount of proteins contained” value in assay [1] (setting [4]) was found to be 2.01 µg/µL; in assay [1] (setting [5]), 2.89 µg/µL; in assay [1] (setting [6]) it was 3.50 µg/µL.

These data come from patent US12280148B2, “Composition for promoting extracellular vesicle production containing peptide derived from noxa protein and method for producing extracellular vesicles by using same” (Exocalibre Therapeutics Co., Ltd., priority 2020, dated 2025).
